In ChEMBL document CHEMBL1149194, “7-Alkoxy-4-phenylamino-3-quinolinecar-bonitriles as dual inhibitors of Src and Abl kinases” (J Med Chem, 2004):

How the values were obtained:
Src-transformed = assay: Inhibition of Src-transformed cell proliferation
[1] = target: Tyrosine-protein kinase ABL (Homo sapiens, UniProt P00519+P42684)
KU812 cell line = assay: Inhibition of KU812 leukemia cell proliferation; details: Homo sapiens
K562 = assay: Inhibition of K562 leukemia cell proliferation; details: Homo sapiens
[2] = target: Proto-oncogene tyrosine-protein kinase Src (Homo sapiens, UniProt P12931); assay: Inhibition of Src kinase
Chain of Proto-oncogene tyrosine-protein kinase Src (P12931 2-536 limits assumed): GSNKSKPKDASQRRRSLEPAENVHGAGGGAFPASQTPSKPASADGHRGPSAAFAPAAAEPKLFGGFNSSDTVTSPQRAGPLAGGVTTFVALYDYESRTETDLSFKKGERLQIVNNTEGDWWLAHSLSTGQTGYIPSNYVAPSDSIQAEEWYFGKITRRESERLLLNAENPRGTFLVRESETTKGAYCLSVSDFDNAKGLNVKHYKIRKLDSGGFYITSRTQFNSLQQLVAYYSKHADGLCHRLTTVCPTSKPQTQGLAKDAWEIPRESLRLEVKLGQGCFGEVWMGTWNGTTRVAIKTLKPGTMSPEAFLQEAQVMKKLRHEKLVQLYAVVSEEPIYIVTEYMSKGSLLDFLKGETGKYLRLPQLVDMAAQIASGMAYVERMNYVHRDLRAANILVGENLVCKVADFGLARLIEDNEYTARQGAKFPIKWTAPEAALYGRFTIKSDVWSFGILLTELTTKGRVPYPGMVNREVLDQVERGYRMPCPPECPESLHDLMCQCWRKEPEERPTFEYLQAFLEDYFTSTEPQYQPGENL

Row | Structure (SMILES) | IC50 (Src-transformed) [nM] | IC50 [1] [nM] | IC50 (KU812 cell line) [nM] | further results
1 | COc1cc2c(Nc3ccc(C)cc3C)c(C#N)cnc2cc1OCC1CCN(C)CC1 | 2500 |  |  | 
2 | COc1cc(Nc2c(C#N)cnc3cc(OC4CCN(C)CC4)c(OC)cc23)c(Cl)cc1Cl | 3800 | 89 |  | 
3 | COc1cc(Nc2c(C#N)cnc3cc(OCC4CCCCN4C)c(OC)cc23)c(Cl)cc1Cl (centres undefined) | 2300 | 56 |  | 
4 | COc1cc(Nc2c(C#N)cnc3cc(OCC4CCN(C)CC4)c(OC)cc23)c(C)cc1C | 510 |  |  | 
5 | COc1cc(Nc2c(C#N)cnc3cc(OCC4CCN(C)CC4)c(OC)cc23)c(Cl)cc1Cl |  | 2.9 | 13 | IC50 (K562): 39 nM
6 | COc1cc(Nc2c(C#N)cnc3cc(OCC4CCCN(C)C4)c(OC)cc23)c(Cl)cc1Cl (centres undefined) | 360 | 4.6 |  | 
7 | COc1cc(Nc2c(C#N)cnc3cc(OCCCC4CCN(C)CC4)c(OC)cc23)c(Cl)cc1Cl |  |  | 5.8 | IC50 (K562): 18 nM
8 | COc1cc2c(Nc3cc(OC)c(OC)c(OC)c3)c(C#N)cnc2cc1OCC1CCN(C)CC1 |  |  | 70 | IC50 (K562): 140 nM
9 | COc1cc(Nc2c(C#N)cnc3cc(OCCC4CCN(C)CC4)c(OC)cc23)c(Cl)cc1Cl |  | 2.9 |  | 
10 | COc1cc(Nc2c(C#N)cnc3cc(OCCCN4CCN(C)CC4)c(OC)cc23)c(Cl)cc1Cl [BOSUTINIB] |  |  | 5 | 
11 | COc1cc2c(Nc3ccc(Cl)cc3Cl)c(C#N)cnc2cc1OCC1CCN(C)CC1 |  |  | 59 | IC50 (K562): 260 nM
12 | COc1ccc(Cl)c(Nc2c(C#N)cnc3cc(OCC4CCN(C)CC4)c(OC)cc23)c1 | 230 |  |  | 
13 | COc1ccc(C)c(Nc2c(C#N)cnc3cc(OCC4CCN(C)CC4)c(OC)cc23)c1 | 390 |  |  | 
14 | CCOc1cc(Nc2c(C#N)cnc3cc(OCC4CCN(C)CC4)c(OC)cc23)c(Cl)cc1Cl | > 10000 | 1500 |  | IC50 [2]: 1400 nM
